Where two headings read alike, the source gives them in different places.
Assays:
B. cereus = assay: Fluorescence per cell, stained bacteria (microtiter plate reader); format: cell-based, Bacillus cereus; settings: optimal dye concentration, corrected for cell number
Procedure: (§1) 1. Measured in a fluorescence microtiter plate reader with extraction and
(§2) emission filters at 485+/-10 and 530+/-12, respectively. Fluorescence dat
(§3) are corrected for cell number; but are not corrected for cell volume or
(§4) 2. Optimal dye concentrations determined as in Example 3.
(§5) 3. Suspension concentrations as used for Example 3.
(§6) A culture of E. coli is washed by centrifugation and resuspended in water to its original volume. Using Corning 96-well microtiter plates with flat bottoms, 150 μL volumes of suspension are loaded per well. A single well of sterile water is the well background standard. Using a Dynatech MR600 microplate reader equipped with a 410 nm filter, absorbance is determined for the initial volumes of suspension. The suspension is diluted seven times by serial ten-fold dilutions in water, 150 μL of suspension per well, and the absorbance measured for each dilution. Following the absorbance measurements, each dilution loaded into wells is further diluted 1:10 and plated in duplicate on nutrient growth agar. The colonies are counted and expressed as colony forming units per milliliter (cfu/mL). Using the turbidity of the dilution in the microtiter plate, the suspension is diluted to a density of about 1×10^9 cfu/mL.
(§7) The bacteria suspension, adjusted to a known density as described above, is diluted seven times by serial ten-fold dilutions in water; 150 μL of suspension per well. Three-fold serial dilutions of dye are used (30-0.04 μM); 50 μL of dye at 4× final concentration. Using Corning 96-well microtiter flat-bottom plates, a matrix is set up whereby the cell concentration decreases across the plate and the dye concentration decreases down the plate, final volume per well is 200 μL. The top row and first column are reserved for the control, sterile water. The plate is incubated at 37° C. for 30 minutes, then read in a Millipore Cytofluor™ 2350 96-well fluorescence microplate reader at a fixed excitation of 485+/-10 nm and each of three emission wavelengths, 530+/-12, 620+/-20, or 645+/-20 nm. The results determine the best dye range (30-1 μM) and the best cell concentrations (concentrated through first three ten-fold dilutions) for optimal dye loading. […] Using the four dye dilutions and the four bacterial dilutions, many bacteria and dyes can be assayed quickly. The data collected allow the determination of optimal dye and cell concentration required for maximal fluorescence intensity per cell.

M. luteus = assay: as above; format: cell-based, Micrococcus luteus; settings: optimal dye concentration, corrected for cell number
Procedure: as §1, §2, §3, §4, §5, §6, §7

S. pyogenes = assay: as above; format: cell-based, Streptococcus pyogenes; settings: optimal dye concentration, corrected for cell number
Procedure: as §1, §2, §3, §4, §5, §6, §7

S. aureus = assay: as above; format: cell-based, Staphylococcus aureus; settings: for Fluorescence/Cell (ex 485/em 530): S. aureus, optimal dye concentration, corrected for cell number; for Normalized Fluorescence/cell (ex 485 nm/em 530 nm), Staphylococcus aureus: scaled to thiazole orange
Source text: as §1, §2, §3, §4, §5
(§8) Factors such as degree of fluorescence enhancement with nucleic acid binding, self quenching, molar extinction coefficient, membrane permeability, intracellular partitioning, nucleic acid binding affinity, and quantum yield contribute to the overall fluorescence of nucleic acid stains in cells. Enhanced cell fluorescence obtained with Dye I is related to unexpected properties other than quantum yield alone. Quantum yield is determined as described above (foot note to Table 2). Normalized quantum yield is determined to illustrate the fold-change in quantum yield of Dye I compared with thiazole orange, a related cell-permeant dye. The normalized fluorescence values represent the quantum yield of each dye divided by the quantum yield of thiazole orange. Fluorescence per cell is also scaled to thiazole orange values for both E. coli and S. aureus to allow direct comparison between relative (normalized) quantum yield and relative (normalized) fluorescence/cell.
as §6, §7

E. coli = assay: as above; format: cell-based, Escherichia coli; settings: for Fluorescence/Cell (ex 485/em 530): E. coli, optimal dye concentration, corrected for cell number; for Normalized Fluorescence/cell (ex 485 nm/em 530 nm), Escherichia coli: scaled to thiazole orange
Source text: as §1, §2, §3, §4, §5, §8, §6, §7

S. oranienburg = assay: as above; format: cell-based, Salmonella oranienburg; settings: optimal dye concentration, corrected for cell number
Procedure: as §1, §2, §3, §4, §5, §6, §7

K. pneumonia = assay: as above; format: cell-based, Klebsiella pneumonia; settings: optimal dye concentration, corrected for cell number
Procedure: as §1, §2, §3, §4, §5, §6, §7

S. sonnei = assay: as above; format: cell-based, Shigella sonnei; settings: optimal dye concentration, corrected for cell number
Procedure: as §1, §2, §3, §4, §5, §6, §7

P. aeruginosa = assay: as above; format: cell-based, Pseudomonas aeruginosa; settings: optimal dye concentration, corrected for cell number
Procedure: as §1, §2, §3, §4, §5, §6, §7

nucleic acids = assay: Excitation/emission maxima of dyes complexed with nucleic acids; format: physicochemical; set-up: key: wavelength in nm; settings: Table 2; dye complexed with nucleic acids
Source text: Dye I is lightly colored and is virtually non-fluorescent when diluted in aqueous solution according to the method of the invention. Dye I is highly membrane-permeant and labels all cells, whether live or dead. When Dye I binds with intracellular nucleic acid polymers such as DNA and RNA, the resultant dye-nucleic acid complex becomes extremely fluorescent upon illumination. The quantum yield of the preferred Dye I/DNA complex is greater than 0.02, typically greater than 0.1, preferably greater than 0.2, and more preferably greater than 0.3. Typically, Dye I combines with intracellular nucleic acids to give a green or red fluorescence. When excited at a wavelength between about 300 nm and about 500 nm, the dyes complexed with nucleic acids have an emission maximum between about 500 and about 610 nm (see Table 2). Preferably, Dye I complexed with nucleic acids has an emission maximum of between about 500 nm and about 535 nm, resulting in a true green fluorescent signal in cells of the sample where Dye I is present alone.

DNA = assay: Quantum yield of dye on DNA versus fluorescein; format: physicochemical; settings: for Normalized QY: QY divided by QY of thiazole orange; for QY (DNA): Table 2, Tris buffered saline pH 10, fluorescein assumed 0.92; for QY: Table 7, on DNA, fluorescein reference
Source text: ^ Quantum yield (QY) of dye on DNA (standard solution in Tris buffere
saline adjusted to pH 10) in comparison with fluorescein, which is assume
to have a quantum yield of 0.92 under the test conditions.
as §8

intact cells = settings: cited from earlier work; for Loading / Retention / pH sensitivity: in words

## CC1=CC(=Cc2sc3ccccc3[n+]2C)c2ccccc2N1c1ccccc1 [compound 613]
B. cereus
  Fluorescence/Cell (ex 485/em 530): 242
M. luteus
  Fluorescence/Cell (ex 485/em 530): 75
S. pyogenes
  Fluorescence/Cell (ex 485/em 530): 0.02
S. aureus
  Fluorescence/Cell (ex 485/em 530): 10
  Normalized Fluorescence/cell (ex 485 nm/em 530 nm), Staphylococcus aureus: 3.1
E. coli
  Fluorescence/Cell (ex 485/em 530): 12
  Normalized Fluorescence/cell (ex 485 nm/em 530 nm), Escherichia coli: 6
S. oranienburg
  Fluorescence/Cell (ex 485/em 530): 10
K. pneumonia
  Fluorescence/Cell (ex 485/em 530): 10
S. sonnei
  Fluorescence/Cell (ex 485/em 530): 6
P. aeruginosa
  Fluorescence/Cell (ex 485/em 530): 6
Nucleic acids
  EM max: 523
  EX max: 506
DNA
  Normalized QY: 1.8
  QY (DNA): 0.33
  QY: 0.33

## CCN(CC)C1=CC(=Cc2sc3ccccc3[n+]2C)c2ccccc2N1c1ccccc1 [compound 619]
B. cereus
  Fluorescence/Cell (ex 485/em 530): 827
M. luteus
  Fluorescence/Cell (ex 485/em 530): 149
S. pyogenes
  Fluorescence/Cell (ex 485/em 530): 0.06
S. aureus
  Fluorescence/Cell (ex 485/em 530): 47
  Normalized Fluorescence/cell (ex 485 nm/em 530 nm), Staphylococcus aureus: 14.7
E. coli
  Fluorescence/Cell (ex 485/em 530): 26
  Normalized Fluorescence/cell (ex 485 nm/em 530 nm), Escherichia coli: 13
S. oranienburg
  Fluorescence/Cell (ex 485/em 530): 18
K. pneumonia
  Fluorescence/Cell (ex 485/em 530): 12
S. sonnei
  Fluorescence/Cell (ex 485/em 530): 13
P. aeruginosa
  Fluorescence/Cell (ex 485/em 530): 16
Nucleic acids
  EM max: 517
  EX max: 488
DNA
  Normalized QY: 3.4
  QY (DNA): 0.62
  QY: 0.62

## CCCCC1=CC(=Cc2oc3ccccc3[n+]2C)c2ccccc2N1c1ccccc1 [compound 624]
B. cereus
  Fluorescence/Cell (ex 485/em 530): 709
M. luteus
  Fluorescence/Cell (ex 485/em 530): 162
S. pyogenes
  Fluorescence/Cell (ex 485/em 530): 0.05
S. aureus
  Fluorescence/Cell (ex 485/em 530): 44
  Normalized Fluorescence/cell (ex 485 nm/em 530 nm), Staphylococcus aureus: 13.8
E. coli
  Fluorescence/Cell (ex 485/em 530): 24
  Normalized Fluorescence/cell (ex 485 nm/em 530 nm), Escherichia coli: 12
S. oranienburg
  Fluorescence/Cell (ex 485/em 530): 15
K. pneumonia
  Fluorescence/Cell (ex 485/em 530): 17
S. sonnei
  Fluorescence/Cell (ex 485/em 530): 11
P. aeruginosa
  Fluorescence/Cell (ex 485/em 530): 14
Nucleic acids
  EM max: 501
  EX max: 480
DNA
  Normalized QY: 3.2
  QY (DNA): 0.58
  QY: 0.58

## COC1=CC(=Cc2sc3ccccc3[n+]2C)c2ccccc2N1c1ccccc1 [compound 628]
B. cereus
  Fluorescence/Cell (ex 485/em 530): 613
M. luteus
  Fluorescence/Cell (ex 485/em 530): 149
S. pyogenes
  Fluorescence/Cell (ex 485/em 530): 0.04
S. aureus
  Fluorescence/Cell (ex 485/em 530): 34
  Normalized Fluorescence/cell (ex 485 nm/em 530 nm), Staphylococcus aureus: 10.6
E. coli
  Fluorescence/Cell (ex 485/em 530): 28
  Normalized Fluorescence/cell (ex 485 nm/em 530 nm), Escherichia coli: 14
S. oranienburg
  Fluorescence/Cell (ex 485/em 530): 19
K. pneumonia
  Fluorescence/Cell (ex 485/em 530): 20
S. sonnei
  Fluorescence/Cell (ex 485/em 530): 16
P. aeruginosa
  Fluorescence/Cell (ex 485/em 530): 14
Nucleic acids
  EM max: 506
  EX max: 488
DNA
  Normalized QY: 2.2
  QY (DNA): 0.40
  QY: 0.40

## CCCCCCN1C=CC(=Cc2sc3ccccc3[n+]2C)c2ccccc21 [compound 634]
B. cereus
  Fluorescence/Cell (ex 485/em 530): 154
M. luteus
  Fluorescence/Cell (ex 485/em 530): 58
S. pyogenes
  Fluorescence/Cell (ex 485/em 530): 0.03
S. aureus
  Fluorescence/Cell (ex 485/em 530): 15
  Normalized Fluorescence/cell (ex 485 nm/em 530 nm), Staphylococcus aureus: 4.7
E. coli
  Fluorescence/Cell (ex 485/em 530): 4
  Normalized Fluorescence/cell (ex 485 nm/em 530 nm), Escherichia coli: 2
S. oranienburg
  Fluorescence/Cell (ex 485/em 530): 5
K. pneumonia
  Fluorescence/Cell (ex 485/em 530): 4
S. sonnei
  Fluorescence/Cell (ex 485/em 530): 4
P. aeruginosa
  Fluorescence/Cell (ex 485/em 530): 3
Nucleic acids
  EM max: 530
  EX max: 510
DNA
  Normalized QY: 1.0
  QY (DNA): 0.18
  QY: 0.18

## Carboxycalcein Blue AM
Intact cells; "probably", temperature not stated
  T1/2 (time for half of dye to leak from intact cells): < 60 min
Intact cells
  Loading: Easily loaded

## Carboxyfluorescein diacetate
Intact cells; 37° C.
  T1/2 (time for half of dye to leak from intact cells): < 30 min
Intact cells
  Retention: Moderate
  pH sensitivity: sensitive

## Carboxynaphtho-fluorescein diacetate
Intact cells
  pH sensitivity: sensitive

## Sulfofluorescein diacetate
Intact cells
  Loading: More difficult
  Retention: better
